Source: US9623063B2, “Extracts from Ajuga reptans cell lines, their preparation and use” (I.R.B. ISTITUTO DI RICERCHE BIOTECNOLOGICHE S.r.l., priority 2005, dated 2017)
Where two headings read alike, the source gives them in different places.

Columns and labels:
[1] = biological target: T1, 5 alpha reductase, type II (Homo sapiens, UniProt P31213); assay: Type II 5 alpha reductase inhibition ([14C] testosterone conversion); assay type: biochemical
T1 construct: made in house; host or cells: genetically modified yeast
T1 sequence (P31213 1-254): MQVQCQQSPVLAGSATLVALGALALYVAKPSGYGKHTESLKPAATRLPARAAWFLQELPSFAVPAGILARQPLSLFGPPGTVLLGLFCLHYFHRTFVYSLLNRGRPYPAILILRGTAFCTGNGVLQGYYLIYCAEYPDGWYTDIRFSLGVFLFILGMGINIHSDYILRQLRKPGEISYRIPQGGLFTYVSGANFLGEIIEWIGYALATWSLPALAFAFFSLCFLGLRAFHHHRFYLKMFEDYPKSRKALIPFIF
From the text: Determination of the 5 alpha reductase inhibitory activities by Ajuga reptans extracts in comparison to Serenoa repens extracts. Said determination has been performed using enzymes (5 alpha reductase, type I and type II) produced by genetically modified yeast. Enzyme activities have been determined in the presence of Ajuga reptans extracts, teupolioside, isoteupolioside and Serenoa repens extracts.
Determination of the type II 5 alpha reductase activity has been performed in an analogous manner to that just described, with the exception of a different pH value for the 0.1 M Tris-citrate buffer (pH 5.0).
In both assays, the steroids have been extracted using 5 ml of methylene chloride. The extracts have then been dried under a stream of nitrogen and the dried residues obtained have been dissolved in 20 μl of a chloroform-methanol mixture (2:1 v/v). An aliquot of said mixture has been deposited on the surface of a silica gel TLC plate. […] For quantification of the results, the spots have been scraped from the TLC plate and extracted with 2 ml of ethyl acetate. The extracts obtained have been analysed, using scintillation fluid, with the aid of a Wallach β-counter. The enzyme activity has been calculated from the percentage conversion (C %) of the substrate into final product: C%=[counted product/(counted substrate+product)]×100.

platelets = assay: ADP induced platelet aggregation-disaggregation in platelet rich plasma; assay type: cell-based, rabbit; conditions: for Control disaggregation: 10 minutes after ADP; for Control disaggregation / Control aggregation / Latency period: Mean ± SD (n = 6); for Control aggregation: ADP 10 μM
Description: Platelet enriched rabbit plasma has been used to assess the platelet anti-aggregating and disaggregating properties of Ajuga reptans Extracts compared with teupolioside and isoteupolioside. Platelet rich plasma has been obtained from rabbit venous blood by mixing it with a 3.8% sodium citrate solution (9:1 v/v). The solution has then been centrifuged at 460×g for 20 minutes. The supernatant has been collected and immediately used for the aggregation assays. Platelet aggregation has been recorded using a Chronolog “Ionised calcium platelet aggregometer” (Chrono-log Co., USA). All measurements have been performed at 37° C. with continuous stirring. One milliliter of the platelet suspension (in the presence or absence of the test substances) has been added to the cuvettes and incubated for five minutes to equilibrate the cells to 37° C. Then 10 μl of a solution of ADP (final concentration—10 μM) has been added and the luminous transmittance continuously recorded. The results are expressed as the DT/DTK ratio, where DTK and DT are the luminous transmittance values, in the absence and presence of extract respectively.
Platelet disaggregation (the disappearance of pre-formed aggregates) has been determined using the same luminous transmittance curve 10 minutes following the addition of ADP. The results are expressed as the DR/DRk ratio, where DRk and DR, are the luminous transmittance in the absence and presence of extract. The test substances, diluted in physiological solution (isotonic saline) (pH 7.4) are pre-incubated with the platelet rich plasma (1:10 v/v) for 5-40 minutes. The aggregation measurements have then been performed. Physiological solution carrier has been added to the control samples (1:10 v/v).

tyrosinase = assay: Tyrosinase inhibition, oxidation of L-tyrosine to L-DOPA; assay type: biochemical; conditions: 250 μg/ml
From the text: The enzyme tyrosinase catalyses the reactions leading to melanin biosynthesis from tyrosine. […] Substances inhibiting tyrosinase activity produce a clearing/bleaching effect on the skin, since they block melanin synthesis. The method used to determine the inhibition of tyrosinase activity in the oxidation reaction of L-tyrosine to L-DOPA is that described in Kim et al. […] Biol. Pharm. […] The method applied for determination of the inhibition of tyrosinase activity in the conversion of L-DOPA to DOPAquinone is that described in Masamoto et al. (Mushroom tyrosinase inhibitory activity of esculetin isolated from seeds of Euphorbia lathyris L. Biosci. Biotechnol. Biochem., 67(3), 631-634, 2003).

[2] = Hydroxyl radical scavenger activity (Fenton reaction, luminol chemiluminescence); assay type: biochemical
From the text: Ajuga reptans Extracts 1 and 2, prepared as described in examples 1 and 2, and isoteupolioside have been used to assess in vitro antioxidant action with specific oxygen radical generating systems such as the superoxide anion (O2^−), the hydroxyl radical (HO^−), the peroxynitrite radical (ONOO^−) and the inhibition of lipid peroxidation. The superoxide anion has been measured by a chemiluminescent assay based on the hypoxanthine (HPX)/xanthine oxidase (XOD) reaction using the Lumimax Superoxide Anion Detection Kit (Stratagene, La Jolla, Calif., USA) and following the manufacturer's instructions. Hydroxyl radical scavenger activity has been measured by means of the Fenton reaction for the production of hydroxyl radicals and chemiluminescent dosage (using a Victor^3 chemiluminometer, Wallac, Finland) with luminol. Peroxynitrite ions have been determined by means of dosage with a spontaneous generator of peroxynitrites (3-morpholinosidnonimine hydrochloride; SIN-1) and a stable reagent for the nitroxyl ions (2-(4-carboxyphenyl)-4,4,5,5-tetramethylimidazoline-1-oxyl-3-oxide potassium salt PTIO spin trap) then dosed by means of electron spin resonance (ESR) using a Nippon Denshi JES-FR30. Lipid peroxidation has been generated using Fe^2+ induced-oxygen reactive species, and detected using thiobarbituric acid in accordance with Buege, J A & Aust, S D: Microsomal lipid peroxidation (Methods Enzymol.
The Extract 1 and the Extract 2 set forth in Table 4 are derived from Ajuga reptans cell cultures comprising the phenylpropanoids at 90% and 54%, respectively. The results are expressed as the concentration inhibiting 50% of activity (IC50), means of 6 independent assays.

[3] = Metal chelation, spectrophotometric (Fe3+); assay type: physicochemical
From the text: The chelating activities of Ajuga reptans extracts in relation to Fe^2+, Fe^3+, Cu^2+ and Ni^2+ metal ions has been determined by means of spectrophotometric measurements using a Shimadzu 1770 UV spectrophotometer. The activities of chelating agents depends on the association constant (equilibrium) of their reactions with the metals according to the following reaction:
[formula] wherein Keq is the equilibrium constant equal to the ratio of concentrations at equilibrium of a complex and a product of equilibrium concentrations of metal ions and a chelator:
The method used for determining chelating activities is well documented in the literature (Korkina L G, Afarras'er I B. Antioxidant and chelating properties of flavonoids. Adv. Pharmacol., 1997, 38:151-63). The results are expressed as Keq (M^−1) calculated for a pure phenylpropanoid. This way the chelating activity against ferrous (Fe II), ferric (Fe III), copper (Cu II) and nickel ions has been calculated.

C[C@@H]1O[C@@H](O[C@@H]2[C@@H](O)[C@H](OCCc3ccc(O)c(O)c3)O[C@H](CO)[C@H]2OC(=O)/C=C/c2ccc(O)c(O)c2)[C@H](O[C@@H]2O[C@H](CO)[C@H](O)[C@H](O)[C@H]2O)[C@H](O)[C@H]1O [Teupolioside, teupolioside]
IC50 ([1]; second column of Table 9, pH 5.0, 5 μM testosterone, read-out: Type II 5 alpha reductase inhibition (IC50) (converted)): 30.5 µM
Effect on platelet aggregation, in words (platelets): modest inhibiting effect on platelet aggregation, only at 1 mg/ml concentration
Control disaggregation (platelets; 0.001 mg/ml): 105 ± 5
Control aggregation (platelets; 0.001 mg/ml): 121 ± 6
Latency period (platelets; 0.001 mg/ml): 101 ± 3
Control disaggregation (platelets; 0.01 mg/ml): 113 ± 10
Control aggregation (platelets; 0.01 mg/ml): 110 ± 10
Latency period (platelets; 0.01 mg/ml): 95 ± 5
Control disaggregation (platelets; 0.1 mg/ml): 124 ± 15
Control aggregation (platelets; 0.1 mg/ml): 114 ± 10
Latency period (platelets; 0.1 mg/ml): 94 ± 4
Control disaggregation (platelets; 1.0 mg/ml): 100 ± 10
Control aggregation (platelets; 1.0 mg/ml): 68 ± 9
Latency period (platelets; 1.0 mg/ml): 66 ± 10
Test L-tyrosine-DOPA inhibitory activity (%) (tyrosinase): 29.6%
Hydroxyl radial (IC50) ([2]; means of 6 independent assays): 1.6 µg/mL
Fe^3+ (Keq, M^−1) ([3]; calculated for a pure phenylpropanoid): 430000 ± 90000 M⁻¹

CC1OC(OC2C(O)C(COC(=O)C=Cc3ccc(O)c(O)c3)OC(OCCc3ccc(O)c(O)c3)C2O)C(OC2OC(CO)C(O)C(O)C2O)C(O)C1O (stereo not shown) [Isoteupolioside, isoteupolioside]
IC50 [1]: 33 µM
Platelet disaggregation test, activity in words (platelets): activity similar to teupolioside
Test L-tyrosine-DOPA inhibitory activity (%) (tyrosinase): 30.9%
Hydroxyl radial (IC50) [2]: 1.04 µg/mL
Fe^3+ (Keq, M^−1) [3]: 420000 ± 110000 M⁻¹
